What was measured:
Format in all cases: cell-based
[1] = biological target: EP2 subtype of the human PGE2 receptor (Homo sapiens, UniProt P43116); assay: cAMP antagonism test on the human EP2 receptor (HTRF cAMP detection); settings: hEP2 receptor, read-out: Antagonism hEP2 IC50
Description: 1. Detection of Antagonism to the Human Prostaglandin E2 (Subtype EP2) Receptor Signal
The binding of PGE2 to the EP2 subtype of the human PGE2 receptor induces the activation of membrane-located adenylate cyclases and leads to the formation of cAMP. In the presence of the phosphodiesterase inhibitor IBMX, the cAMP accumulated owing to this stimulation and released by cell lysis is used in a competitive detection method. In this test, the cAMP present in the lysate competes with a fluorescence-labelled cAMP (cAMP-d2) for binding to an Eu cryptate-labelled anti-cAMP antibody.
(§1) In the absence of cellular cAMP, a maximal signal is produced, which is attributable to the binding of this cAMP-d2 molecule to the antibody. After excitation of the […] at 337 nm, there is a fluorescence resonance energy transfer (FRET) to the Eu cryptate molecules of the anti-cAMP antibody (labelled therewith), followed by a long-lasting emission signal at 665 nm (and at […]). Both signals are measured in a suitable measurement instrument with a time delay, i.e. after decay of the background fluorescence. Any increase in the low FRET signal caused by prostaglandin E2 administration (measured as well ratio change=emission665 nm/emission620 nm*10000) indicates the action of antagonists.
1.2.1. Test for Antagonism (Data Per Well of a 384-Well Plate):
To a test plate with the substance solutions already added (0.05 μl; 100% DMSO, concentration range from 0.8 nM-16.5 μM) were added 4 μl of a cAMP-d2/cell suspension (625000 cells/ml). After a 20-minute preincubation at room temperature (RT), 2 μl of a 3×PGE2 solution (1.5 nM, in PBS-IBMX) were added and incubated in the presence of the agonist for a further 60 mins at RT (volume: ˜6 μl). Next the reaction was stopped by addition of 2 μl of lysis buffer and incubated for a further 20 mins at RT before the actual measurement (volume: ˜8 μl).

human PGD receptor = biological target: T1, human PGD receptor (Homo sapiens, UniProt Q13258); assay: cAMP antagonism test on the human prostaglandin D receptor (HTRF cAMP detection); settings: selectivity towards hDP, IC50 measured by cAMP antagonism test
T1 sequence (Q13258 1-359): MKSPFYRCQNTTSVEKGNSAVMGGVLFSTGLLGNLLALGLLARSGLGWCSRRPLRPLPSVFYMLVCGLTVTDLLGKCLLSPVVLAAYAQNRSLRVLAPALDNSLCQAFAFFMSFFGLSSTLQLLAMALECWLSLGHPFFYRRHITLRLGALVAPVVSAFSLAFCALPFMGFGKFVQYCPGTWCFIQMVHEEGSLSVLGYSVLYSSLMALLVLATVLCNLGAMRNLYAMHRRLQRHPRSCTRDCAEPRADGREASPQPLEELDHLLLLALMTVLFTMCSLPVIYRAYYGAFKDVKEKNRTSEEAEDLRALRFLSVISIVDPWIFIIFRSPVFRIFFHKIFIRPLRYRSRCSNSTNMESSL
Description: 3. Detection of Antagonism to the Human Prostaglandin D Receptor Signal
The binding of prostaglandin D2 to the human PGD receptor induces the activation of membrane-located adenylate cyclases and leads to the formation of cAMP. In the presence of the phosphodiesterase inhibitor IBMX, the cAMP accumulated owing to this stimulation and released by cell lysis is used in a competitive detection method. In this test, the cAMP present in the lysate competes with a fluorescence-labelled cAMP (cAMP-d2) for binding to an Eu cryptate-labelled anti-cAMP antibody.
as §1
3.2.1. Test for Antagonism (Data Per Well of a 384-Well Plate):
To a test plate with the substance solutions already added (0.05 μl; 100% DMSO, concentration range from 0.8 nM-16.5 μM) were added 4 μl of a cAMP-d2/cell suspension (625000 cells/ml). After a 20-minute preincubation at room temperature (RT), 2 μl of a 3×PGD2 solution (6 nM, in PBS-IBMX) were added and incubated in the presence of the agonist for a further 30 mins at RT (volume: ˜6 μl). Next the reaction was stopped by addition of 2 μl of lysis buffer and incubated for a further 20 mins at RT before the actual measurement (volume: ˜8 μl).

[2] = biological target: EP4 subtype of the human PGE2 receptor (Homo sapiens, UniProt P35408); assay: cAMP antagonism test on the human EP4 receptor (HTRF cAMP detection); settings: selectivity towards hEP4, IC50 measured by cAMP antagonism test
Description: 2. Detection of Antagonism to the Human Prostaglandin E2 (Subtype EP4) Receptor Signal
The binding of PGE2 to the EP4 subtype of the human PGE2 receptor induces the activation of membrane-located adenylate cyclases and leads to the formation of cAMP. In the presence of the phosphodiesterase inhibitor IBMX, the cAMP accumulated owing to this stimulation and released by cell lysis is used in a competitive detection method. In this test, the cAMP present in the lysate competes with a fluorescence-labelled cAMP (cAMP-d2) for binding to an Eu cryptate-labelled anti-cAMP antibody.
as §1, with “cAMP” for “cAMP,”
2.2.1. Test for Antagonism (Data Per Well of a 384-Well Plate):
To a test plate with the substance solutions already added (0.05 μl; 100% DMSO, concentration range from 0.8 nM-16.5 μM) were added 4 μl of a cAMP-d2/cell suspension (312500 cells/ml). After a 20-minute preincubation at room temperature (RT), 2 μl of a 3×PGE2 solution (0.3 nM, in PBS-IBMX) were added and incubated in the presence of the agonist for a further 60 mins at RT (volume: ˜6 μl). Next the reaction was stopped by addition of 2 μl of lysis buffer and incubated for a further 20 mins at RT before the actual measurement (volume: ˜8 μl).

EP2 subtype of the human PGE2 receptor, sequence (P43116 whole entry): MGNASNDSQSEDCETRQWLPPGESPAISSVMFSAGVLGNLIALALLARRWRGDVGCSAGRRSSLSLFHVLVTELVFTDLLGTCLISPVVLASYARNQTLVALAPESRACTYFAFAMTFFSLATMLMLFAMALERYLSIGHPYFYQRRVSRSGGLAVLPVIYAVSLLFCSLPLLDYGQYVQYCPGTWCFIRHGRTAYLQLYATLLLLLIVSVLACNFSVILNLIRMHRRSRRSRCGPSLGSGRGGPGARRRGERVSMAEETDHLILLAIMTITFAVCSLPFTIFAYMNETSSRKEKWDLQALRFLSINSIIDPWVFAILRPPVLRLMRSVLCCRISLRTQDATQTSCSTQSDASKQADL
EP4 subtype of the human PGE2 receptor, sequence (P35408 whole entry): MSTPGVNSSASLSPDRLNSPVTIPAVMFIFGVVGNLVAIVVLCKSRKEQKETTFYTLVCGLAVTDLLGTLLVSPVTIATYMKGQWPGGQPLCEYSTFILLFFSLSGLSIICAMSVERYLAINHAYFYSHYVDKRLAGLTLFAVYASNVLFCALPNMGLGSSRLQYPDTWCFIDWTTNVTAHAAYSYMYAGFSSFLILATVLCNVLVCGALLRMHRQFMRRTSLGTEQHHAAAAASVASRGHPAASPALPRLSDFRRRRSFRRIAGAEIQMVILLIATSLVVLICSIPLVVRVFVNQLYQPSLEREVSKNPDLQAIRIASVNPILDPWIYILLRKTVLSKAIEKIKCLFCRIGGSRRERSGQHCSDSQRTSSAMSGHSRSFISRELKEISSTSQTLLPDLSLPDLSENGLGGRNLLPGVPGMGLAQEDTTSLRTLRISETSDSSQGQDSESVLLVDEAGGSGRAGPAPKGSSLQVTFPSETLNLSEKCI

| IC50 [1] [nM] | Selectivity hEP2/hDP (human PGD receptor) | Selectivity hEP2/hEP4 [2] | SMILES |
| --- | --- | --- | --- |
| 8.17 | xxx (xxx > 100) | – | COCCNC(=O)c1ccc2nn(CC3CN(C(=O)c4ccc(SC(F)(F)F)cc4)C3)cc2c1C [Example 118, N-(2-methoxyethyl)-4-methyl-2-[(1-{4-[(trifluoromethyl)sulphanyl]benzoyl}azetidin-3-yl)methyl]-2H-indazol-5-carboxamide] |
| 19.4 | xxx (xxx > 100) | xxx (xxx > 100) | COCCNC(=O)c1ccc2nn(CC3CCN(C(=O)c4ccc(-c5cnc(C(F)(F)F)nc5)cc4)CC3)cc2c1C [Example 382, N-(2-methoxyethyl)-4-methyl-2-[(1-{4-[2-(trifluoromethyl)pyrimidin-5-yl]-benzoyl}piperidin-4-yl)methyl]-2H-indazol-5-carboxamide] |
| 48.5 | xxx (xxx > 100) | xxx (xxx > 100) | Cc1ccc(C(=O)N2CC(Cn3cc4c(C)c(C(=O)NCCOCC5CC5)ccc4n3)C2)cc1 [Example 151, N-[2-(cyclopropylmethoxy)ethyl]-4-methyl-2-{[1-(4-methylbenzoyl)azetidin-3-yl]methyl}-2H-indazol-5-carboxamide] |
| 109 | xxx (xxx > 100) | xxx (xxx > 100) | Cc1c(C(=O)NCC(F)(F)F)ccc2nn(CC3CN(C(=O)c4ccc(S(F)(F)(F)(F)F)cc4)C3)cc12 [Example 132, 4-methyl-2-({1-[4-(pentafluoro-λ^6-sulphanyl)benzoyl]azetidin-3-yl}methyl)-N-(2,2,2-trifluoroethyl)-2H-indazol-5-carboxamide] |
| 9.31 | xxx (xxx > 100) | xxx (xxx > 100) | COCCNC(=O)c1ccc2nn(CC3CCN(C(=O)c4cc5ccccc5n4C)CC3)cc2c1C [Example 29, N-(2-methoxyethyl)-4-methyl-2-({1-[(1-methyl-1H-indol-2-yl)carbonyl]-piperidin-4-yl}methyl)-2H-indazol-5-carboxamide] |
| 7.77 | xxx (xxx > 100) | xxx (xxx > 100) | COCCNC(=O)c1ccc2nn(CC3CN(C(=O)c4ccc5cc(OC)ccc5c4)C3)cc2c1C [Example 176, N-(2-methoxyethyl)-2-{[1-(6-methoxy-2-naphthoyl)azetidin-3-yl]methyl}-4-methyl-2H-indazol-5-carboxamide] |
| 49 | xxx (xxx > 100) | – | Cc1c(C(=O)NCCN2CCC(F)(F)C2)ccc2nn(CC3CCN(C(=O)c4ccc(SC(F)(F)F)cc4)CC3)cc12 [Example 70, N-[2-(3,3-difluoropyrrolidin-1-yl)ethyl]-4-methyl-2-[(1-{4-[(trifluoromethyl)sulphanyl]benzoyl}piperidin-4-yl)methyl]-2H-indazol-5-carboxamide] |
| 15.5 | xxx (xxx > 100) | – | COCCNC(=O)c1ccc2nn(CC3CN(C(=O)c4ccc(C(F)(F)F)cc4F)C3)cc2c1C [Example 120, 2-({1-[2-fluoro-4-(trifluoromethyl)benzoyl]azetidin-3-yl}methyl)-N-(2-methoxy-ethyl)-4-methyl-2H-indazol-5-carboxamide] |

More lines, now with the values behind:

| SMILES | IC50 [1] [nM] | Selectivity hEP2/hDP (human PGD receptor) | Selectivity hEP2/hEP4 [2] |
| --- | --- | --- | --- |
| COCCNC(=O)c1ccc2nn(CC3CCN(C(=O)c4ccc(-c5ccccc5)c(F)c4)CC3)cc2c1C [Example 49, 2-({1-[(2-fluoro-biphenyl-4-yl)-carbonyl]piperidin-4-yl}methyl)-N-(2-methoxyethyl)-4-methyl-2H-indazol-5-carboxamide] | 6.44 | xxx (xxx > 100) | xxx (xxx > 100) |
| CCc1c(C(=O)NCCOC)ccc2nn(CC3CCN(C(=O)c4ccc(OC(F)(F)F)cc4)CC3)cc12 [Example 213, 4-Ethyl-N-(2-methoxyethyl)-2-({1-[4-(trifluoromethoxy)benzoyl]piperidin-4-yl}methyl)-2H-indazol-5-carboxamide] | 82.4 | xxx (xxx > 100) | xxx (xxx > 100) |
| COCCNC(=O)c1ccc2nn(CC3CN(C(=O)c4ccc(Cl)c(C(F)(F)F)c4)C3)cc2c1OC [Example 256, 2-({1-[4-chloro-3-(trifluoromethyl)benzoyl]azetidin-3-yl}methyl)-4-methoxy-N-(2-methoxyethyl)-2H-indazol-5-carboxamide] | 107 | – | xxx (xxx > 100) |
| Cc1c(C(=O)NCCN2CCC(F)(F)C2)ccc2nn(CC3CCN(C(=O)c4ccc(Cl)cc4)CC3)cc12 [Example 69, 2-{[1-(4-chlorobenzoyl)piperidin-4-yl]methyl}-N-[2-(3,3-difluoropyrrolidin-1-yl)ethyl]-4-methyl-2H-indazol-5-carboxamide] | 29 | xxx (xxx > 100) | – |
| COCCNC(=O)c1ccc2nn(CC3CN(C(=O)c4ccc(OC(F)(F)F)cc4)C3)cc2c1C [Example 119, N-(2-methoxyethyl)-4-methyl-2-({1-[4-(trifluoromethoxy)benzoyl]azetidin-3-yl}methyl)-2H-indazol-5-carboxamide] | 13.2 | xxx (xxx > 100) | – |

— patent publication US9062041B2 (Bayer Intellectual Property GmbH, priority 2011, dated 2015)
